Measured values taken from patent US20100105655A1, “NOVEL COMPOUNDS 515” (ASTRAZENECA AB, priority 2008, published 2010).

What follows are compounds tested against T1, IGFR kinase (Homo sapiens, UniProt P08069) (assay: Enzyme assay (c), IGFR kinase, Caliper LabChip). Conditions: 30 nM IGFR kinase, 6 uM ATP, 3 uM peptide mix; read-out: IGFR IC50.
T1 construct: purchased Millipore
Format: biochemical
Protocol: For Echo dosing the solvent was 100% DMSO. A master plate was prepared with 40 ul of 10 mM stock solution of the test compound in DMSO in quadrant 1 of a Labcyte 384 well plate. A 1 in 100 dilution was made from quadrant 1 into quadrant 2 by removing 0.4 ul and adding it to 39.6 ul of DMSO. Subsequent 1 in 100 dilutions were made into quadrant 3 from quadrant 2 and quadrant 4 from quadrant 3.
Multiple 2.5 nl droplets were dispensed from each quadrant of the master plate to generate the dose range that was required in the test. The dose range most commonly used was as follows: 100 uM, 30 uM, 10 uM, 3 uM, 1 uM, 0.3 uM, 0.1 uM, 0.03 uM, 0.01 uM, 0.003 uM, 0.001 uM, 0.0001 uM. Each well was backfilled with dimethyl sulfoxide (DMSO) to a total volume of 120 nl, such that when the enzyme and substrate mix was added the final DMSO concentration was 1%.
DMSO was added to max control wells as 120 nl, minimum control wells were treated with 120 nl of compound at a concentration that inhibited the enzyme activity 100%.
Integration of the substrate and product peaks was carried out using Caliper LabChip software and IC50 curves were calculated using Origin™ software.

T1 sequence (P08069 31-1367): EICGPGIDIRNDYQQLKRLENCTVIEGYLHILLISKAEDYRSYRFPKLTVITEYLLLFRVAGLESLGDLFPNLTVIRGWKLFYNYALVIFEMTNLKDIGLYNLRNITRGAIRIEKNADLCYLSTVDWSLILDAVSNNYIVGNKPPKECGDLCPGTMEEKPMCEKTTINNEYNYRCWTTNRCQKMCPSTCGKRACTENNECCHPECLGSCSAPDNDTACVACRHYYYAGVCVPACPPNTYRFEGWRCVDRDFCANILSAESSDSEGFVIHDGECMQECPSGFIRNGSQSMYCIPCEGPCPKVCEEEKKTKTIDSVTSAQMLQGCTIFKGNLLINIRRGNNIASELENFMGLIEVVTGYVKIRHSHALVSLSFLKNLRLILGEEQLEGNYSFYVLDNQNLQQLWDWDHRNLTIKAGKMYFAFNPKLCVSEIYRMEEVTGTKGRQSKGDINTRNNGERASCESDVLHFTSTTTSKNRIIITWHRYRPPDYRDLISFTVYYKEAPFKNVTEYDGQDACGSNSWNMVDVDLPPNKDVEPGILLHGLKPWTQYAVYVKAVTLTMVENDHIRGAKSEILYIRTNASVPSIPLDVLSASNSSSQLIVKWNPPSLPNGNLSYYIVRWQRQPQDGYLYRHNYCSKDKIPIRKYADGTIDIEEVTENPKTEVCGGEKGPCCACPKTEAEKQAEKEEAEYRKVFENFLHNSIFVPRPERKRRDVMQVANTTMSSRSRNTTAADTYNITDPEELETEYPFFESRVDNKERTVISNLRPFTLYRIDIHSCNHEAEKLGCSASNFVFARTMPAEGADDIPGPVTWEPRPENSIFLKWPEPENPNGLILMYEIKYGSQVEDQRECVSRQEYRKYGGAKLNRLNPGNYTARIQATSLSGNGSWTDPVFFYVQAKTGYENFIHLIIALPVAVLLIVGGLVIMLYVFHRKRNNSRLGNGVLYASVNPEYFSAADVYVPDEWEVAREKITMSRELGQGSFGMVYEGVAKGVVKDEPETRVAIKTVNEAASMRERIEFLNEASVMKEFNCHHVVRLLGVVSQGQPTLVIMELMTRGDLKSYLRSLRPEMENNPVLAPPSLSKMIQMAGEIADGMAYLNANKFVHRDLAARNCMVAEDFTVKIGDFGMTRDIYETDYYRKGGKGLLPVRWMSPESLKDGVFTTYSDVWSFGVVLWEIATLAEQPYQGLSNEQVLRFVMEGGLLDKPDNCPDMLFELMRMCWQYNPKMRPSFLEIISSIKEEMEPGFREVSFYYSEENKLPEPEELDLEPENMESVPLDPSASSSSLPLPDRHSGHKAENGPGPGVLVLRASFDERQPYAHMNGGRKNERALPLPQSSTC

Row | SMILES | IC50 [nM]
1 | COc1cc(OC2CN(C(=O)CO)C2)ccc1Nc1ncc(Cl)c(-c2cnc3ccccn23)n1 [Example 27.3, 1-[3-[4-[(5-chloro-4-imidazo[1,2-a]pyridin-3-yl-pyrimidin-2-yl)amino]-3-methoxy-phenoxy]azetidin-1-yl]-2-hydroxy-ethanone] | 22
2 | COc1cc(C(=O)N2CCNCC2)ccc1Nc1ncc(Cl)c(-c2cnc3ccccn23)n1 [Example 30, [4-[(5-chloro-4-imidazo[1,2-a]pyridin-3-yl-pyrimidin-2-yl)amino]-3-methoxy-phenyl]-piperazin-1-yl-methanone] | 33
3 | COc1cc(C2CCNC(C)C2)ccc1Nc1ncc(Cl)c(-c2cnc3ccccn23)n1 (centres unmarked) [Example 59.2, 5-chloro-4-imidazo[1,2-a]pyridin-3-yl-N-[2-methoxy-4-(2-methyl-4-piperidyl)phenyl]pyrimidin-2-amine] | 7
4 | COc1cc(O[C@@H]2CCN(C(C)=O)C2)ccc1Nc1ncc(Cl)c(-c2cnc3ccccn23)n1 [Example 10, 1-[(3R)-3-[4-[(5-chloro-4-imidazo[1,2-a]pyridin-3-yl-pyrimidin-2-yl)amino]-3-methoxy-phenoxy]pyrrolidin-1-yl]ethanone] | 20
5 | COCC(=O)N1CCN(c2ccc(Nc3ncc(Cl)c(-c4cnc5ccccn45)n3)c(OC)c2)CC1 [Example 39, 1-[4-[4-[(5-chloro-4-imidazo[1,2-a]pyridin-3-yl-pyrimidin-2-yl)amino]-3-methoxy-phenyl]piperazin-1-yl]-2-methoxy-ethanone] | 12
6 | CCC(=O)N1CCN(c2ccc(Nc3ncc(Cl)c(-c4cnc5ccccn45)n3)c(OC)c2)CC1 [Example 42, 1-[4-[4-[(5-chloro-4-imidazo[1,2-a]pyridin-3-yl-pyrimidin-2-yl)amino]-3-methoxy-phenyl]piperazin-1-yl]propan-1-one] | 18
7 | COc1cc(CN2CCN(CCO)CC2)ccc1Nc1ncc(Cl)c(-c2cnc3ccccn23)n1 [Example 21.8, 2-[4-[[4-[(5-chloro-4-imidazo[1,2-a]pyridin-3-yl-pyrimidin-2-yl)amino]-3-methoxy-phenyl]methyl]piperazin-1-yl]ethanol] | 20
8 | COc1cc(N2CCN(CCO)CC2)ccc1Nc1ncc(C)c(-c2cnc3ccccn23)n1 [Example 101, 2-[4-[4-[(4-imidazo[1,2-a]pyridin-3-yl-5-methyl-pyrimidin-2-yl)amino]-3-methoxy-phenyl]piperazin-1-yl]ethanol] | 235
9 | COc1cc(N2CCN(C[C@H](C)O)CC2)ccc1Nc1ncc(Cl)c(-c2cnc3ccccn23)n1 [Example 50, (2S)-1-[4-[4-[(5-chloro-4-imidazo[1,2-a]pyridin-3-yl-pyrimidin-2-yl)amino]-3-methoxy-phenyl]piperazin-1-yl]propan-2-ol] | 8
10 | COc1cc(N2CCN(C(=O)[C@H](N)CO)CC2)ccc1Nc1ncc(Cl)c(-c2cnc3ccccn23)n1 [Example 24.12, (2R)-2-amino-1-[4-[4-[(5-chloro-4-imidazo[1,2-a]pyridin-3-yl-pyrimidin-2-yl)amino]-3-methoxy-phenyl]piperazin-1-yl]-3-hydroxy-propan-1-one] | 6
11 | COc1cc(N2CCN(C(C)=O)CC2)ccc1Nc1ncc(C)c(-c2cnc3ccccn23)n1 [Example 97, 1-[4-[4-[(4-imidazo[1,2-a]pyridin-3-yl-5-methyl-pyrimidin-2-yl)amino]-3-methoxy-phenyl]piperazin-1-yl]ethanone] | 47
12 | COc1ccc(OC[C@H]2CCCN2)cc1Nc1ncc(Cl)c(-c2cnc3ccccn23)n1 [Example 6.4, 5-chloro-4-imidazo[1,2-a]pyridin-3-yl-N-[2-methoxy-5-[[(2R)-pyrrolidin-2-yl]methoxy]phenyl]pyrimidin-2-amine] | 12
13 | COCCN1CCN(CCOc2ccc(Nc3ncc(Cl)c(-c4cnc5ccccn45)n3)c(OC)c2)CC1 [Example 3.12, 5-chloro-4-imidazo[1,2-a]pyridin-3-yl-N-[2-methoxy-4-[2-[4-(2-methoxyethyl)piperazin-1-yl]ethoxy]phenyl]pyrimidin-2-amine] | 44
14 | COc1cc(N2CCN(CCO)CC2)ccc1Nc1ncc(C(F)(F)F)c(-c2cnc3ccccn23)n1 [Example 109, 2-[4-[4-[[4-imidazo[1,2-a]pyridin-3-yl-5-(trifluoromethyl)pyrimidin-2-yl]amino]-3-methoxy-phenyl]piperazin-1-yl]ethanol] | 16
15 | COc1cc(CN[C@H](C)CO)ccc1Nc1ncc(Cl)c(-c2cnc3ccccn23)n1 [Example 21.15, (2R)-2-[[4-[(5-chloro-4-imidazo[1,2-a]pyridin-3-yl-pyrimidin-2-yl)amino]-3-methoxy-phenyl]methylamino]propan-1-ol] | 26
16 | COc1cc(N2CCN(C(=O)[C@@H]3C[C@@H](O)CN3)CC2)ccc1Nc1ncc(Cl)c(-c2cnc3ccccn23)n1 [Example 24.9, [4-[4-[(5-chloro-4-imidazo[1,2-a]pyridin-3-yl-pyrimidin-2-yl)amino]-3-methoxy-phenyl]piperazin-1-yl]-[(2S,4R)-4-hydroxypyrrolidin-2-yl]methanone] | 6
17 | COc1cc(O[C@H]2CCN(S(C)(=O)=O)C2)ccc1Nc1ncc(Cl)c(-c2cnc3ccccn23)n1 [Example 14, 5-chloro-4-imidazo[1,2-a]pyridin-3-yl-N-[2-methoxy-4-[(3S)-1-methylsulfonylpyrrolidin-3-yl]oxy-phenyl]pyrimidin-2-amine] | 19

Further lines, results first:

Row | IC50 [nM] | SMILES
18 | 49 | COc1ccc(N2CCN(C(=O)CN(C)C)CC2)cc1Nc1ncc(C)c(-c2cnn3ccccc23)n1 [Example 236, 2-(dimethylamino)-1-[4-[4-methoxy-3-[(5-methyl-4-pyrazolo[1,5-a]pyridin-3-yl-pyrimidin-2-yl)amino]phenyl]piperazin-1-yl]ethanone]
19 | 120 | COc1cc(N2CCN(C(C)=O)CC2)ccc1Nc1ncc(Cl)c(-c2cnc3cc(CN(C)C(C)=O)ccn23)n1 [Example 188, N-[[3-[2-[4-(4-acetylpiperazin-1-yl)-2-methoxy-anilino]-5-chloro-pyrimidin-4-yl]imidazo[1,2-a]pyridin-7-yl]methyl]-N-methyl-acetamide]
20 | 33 | CNC(=O)CN(C)c1ccc(Nc2ncc(Cl)c(-c3cnc4c(F)cccn34)n2)c(OC)c1 [Example 226, 2-[4-[[5-chloro-4-(8-fluoroimidazo[1,2-a]pyridin-3-yl)pyrimidin-2-yl]amino]-3-methoxy-N-methyl-anilino]-N-methyl-acetamide]
21 | 17 | COc1cc(C(CO)CO)ccc1Nc1ncc(Cl)c(-c2cnn3ccccc23)n1 [Example 148, 2-[4-[(5-chloro-4-pyrazolo[1,5-a]pyridin-3-yl-pyrimidin-2-yl)amino]-3-methoxy-phenyl]propane-1,3-diol]
22 | 1 | COc1cc2c(cc1Nc1ncc(Cl)c(-c3cnn4ccccc34)n1)N(C(=O)CN(C)C)CC2 [Example 157, 1-[6-[(5-chloro-4-pyrazolo[1,5-a]pyridin-3-yl-pyrimidin-2-yl)amino]-5-methoxy-indolin-1-yl]-2-(dimethylamino)ethanone]
23 | 8 | CNCC(=O)N1CCC(c2ccc(Nc3ncc(C)c(-c4cnn5ccccc45)n3)c(OC)c2)CC1 [Example 237, 1-[4-[3-methoxy-4-[(5-methyl-4-pyrazolo[1,5-a]pyridin-3-yl-pyrimidin-2-yl)amino]phenyl]-1-piperidyl]-2-(methylamino)ethanone]
24 | 190 | COc1cc(N2CCN(CCO)[C@@H](C)C2)ccc1Nc1ncc(C)c(-c2cnc3ccccn23)n1 [Example 271, 2-[(2S)-4-[4-[(4-imidazo[1,2-a]pyridin-3-yl-5-methyl-pyrimidin-2-yl)amino]-3-methoxy-phenyl]-2-methyl-piperazin-1-yl]ethanol]
25 | 19 | COc1cc(N2CC3CN(C(=O)CN(C)C)CC(C2)O3)ccc1Nc1ncc(Cl)c(-c2cnc3c(F)cccn23)n1 [Example 211, 1-[3-[4-[[5-chloro-4-(8-fluoroimidazo[1,2-a]pyridin-3-yl)pyrimidin-2-yl]amino]-3-methoxy-phenyl]-9-oxa-3,7-diazabicyclo[3.3.1]nonan-7-yl]-2-(dimethylamino)ethanone]
26 | 3 | COc1cc(N2CCNCC2=O)ccc1Nc1ncc(Cl)c(-c2cnc3c(F)cccn23)n1 [Example 224, 1-[4-[[5-chloro-4-(8-fluoroimidazo[1,2-a]pyridin-3-yl)pyrimidin-2-yl]amino]-3-methoxy-phenyl]piperazin-2-one]
27 | 14 | COc1cc(N2CC3CN(C(=O)[C@H](C)O)CC(C2)O3)ccc1Nc1ncc(Cl)c(-c2cnc3c(F)cccn23)n1 [Example 213, (2S)-1-[3-[4-[[5-chloro-4-(8-fluoroimidazo[1,2-a]pyridin-3-yl)pyrimidin-2-yl]amino]-3-methoxy-phenyl]-9-oxa-3,7-diazabicyclo[3.3.1]nonan-7-yl]-2-hydroxy-propan-1-one]
28 | 7 | COc1cc(N2CCN(C(=O)CO)CC2)ccc1Nc1ncc(Cl)c(-c2cnc3c(F)cc(F)cn23)n1 [Example 250, 1-[4-[4-[[5-chloro-4-(6,8-difluoroimidazo[1,2-a]pyridin-3-yl)pyrimidin-2-yl]amino]-3-methoxy-phenyl]piperazin-1-yl]-2-hydroxy-ethanone]
29 | 5 | COc1cc(N2CCN(C(=O)[C@@H](C)O)CC2)ccc1Nc1ncc(Cl)c(-c2cnc3c(F)cc(F)cn23)n1 [Example 256, (2R)-1-[4-[4-[[5-chloro-4-(6,8-difluoroimidazo[1,2-a]pyridin-3-yl)pyrimidin-2-yl]amino]-3-methoxy-phenyl]piperazin-1-yl]-2-hydroxy-propan-1-one]
